How the values were obtained:
HL-60 [1] = experiment: Cytotoxicity against human HL60 cells by MTS assay; assay type: functional, cell-based
Calf thymus DNA = experiment: Displacement of ethidium bromide from calf thymus DNA by fluorometric assay; assay type: nucleic-acid assay; conditions: Bos taurus
HL-60 [2] = experiment: Growth inhibition of human HL60 cells; assay type: functional

| SMILES | IC50 (HL-60 [1]) [µM] | other results |
| --- | --- | --- |
| CN(C)CCNC(=O)c1cccc2c(NCCCCCCN)c3ccccc3nc12 | 0.45 | Kapp (Calf thymus DNA): 3.1 ×10⁷ /M |
| Nc1c2ccccc2nc2ccccc12 [AMINACRINE] | – | GI50 (HL-60 [2]): 2 µM; Kapp (Calf thymus DNA): 1.8 ×10⁶ /M; logKA (Calf thymus DNA): 6.26 |
| CN(C)CCNC(=O)c1cccc2c(NCCCCCCNS(=O)(=O)c3cccc4c(N(C)C)cccc34)c3ccccc3nc12 | 2.1 | – |
| CN(C)CCNC(=O)c1ccc2c(NCCCCCCNC(=O)c3ccc4ccccc4n3)c3ccccc3nc2c1 | 30.7 | – |
| CN(C)CCNC(=O)c1cccc2c(NCCCCCCNS(=O)(=O)c3cccc4cccnc34)c3ccccc3nc12 | 16 | – |
| CN(C)CCNC(=O)c1ccc2c(NCCCCCCN)c3ccccc3nc2c1 | 38.3 | Kapp (Calf thymus DNA): 9.83 ×10⁶ /M |
| CN(C)CCNC(=O)c1ccc2c(NCCCCCCNS(=O)(=O)c3cccc4c(N(C)C)cccc34)c3ccccc3nc2c1 | 26.7 | – |
| CN(C)CCNC(=O)c1ccc2c(NCCCCCCNC(=O)c3cccc4ccccc34)c3ccccc3nc2c1 | 58.9 | – |
| CN(C)CCNC(=O)c1ccc2c(NCCCCCCNS(=O)(=O)c3cccc4cccnc34)c3ccccc3nc2c1 | 35.8 | – |
| CN(C)CCNC(=O)c1cccc2c(NCCCCCCNC(=O)c3cccc4ccccc34)c3ccccc3nc12 | 3.5 | – |
| CN(C)CCNC(=O)c1cccc2c(NCCCCCCNC(=O)c3ccc4ccccc4n3)c3ccccc3nc12 | 22.6 | – |
